Data reported in publication PMC8389807 (Journal of Medicinal Chemistry, 2021).
Read-outs that look alike come from different tables or passages of the source.

Key:
[1] = test system: EV71 genogroup C2 strain H08300 461#812; assay: microbe, parasite or virus in culture; assay type: cell-based; conditions: Enterovirus A, genogroup C2, strain H08300 461#812, RD cells
HIV-2 (ROD) = assay: Anti-HIV-2 activity in MT-4 cells (CPE, MTS/PES); assay type: cell-based
HIV = test system: HIV; design: method as in PMID 26513643, PMID 31809045; conditions: Figure 1, earlier prototypes; cited from earlier work
[2] = test system: EV71 genogroup B5 strain TW/70902/08; assay: microbe, parasite or virus in culture; assay type: cell-based; conditions: Enterovirus A, genogroup B5, strain TW/70902/08, RD cells
HIV-1 (NL4.3) [3] = assay: microbe, parasite or virus in culture; assay type: cell-based; conditions: MT-4 cells, 50% reduction of virus-induced cytopathic effect
[4] = test system: EV71 genogroup C4 strain TW/1956/05; assay: microbe, parasite or virus in culture; assay type: cell-based; conditions: Enterovirus A, genogroup C4, strain TW/1956/05, RD cells
[5] = test system: BrCr Lab Strain of EV-A71; assay: Antiviral activity against the BrCr lab strain of EV-A71 in RD cells (CPE reduction, MTS/PMS); assay type: cell-based; conditions: Enterovirus A
EV71 = test system: EV71; design: method as in PMID 27246775, PMID 31809045; conditions: Figure 1, earlier prototypes; cited from earlier work
[6] = test system: EV71 genogroup B2 strain 11316; assay: microbe, parasite or virus in culture; assay type: cell-based; conditions: Enterovirus A, genogroup B2, strain 11316, RD cells
HIV-1 (NL4.3) [7] = assay: microbe, parasite or virus in culture; assay type: cell-based; conditions: CXCR4-tropic strain, PBMC; for EC50: read-out: HIV-1 (NL4.3) EC50
HIV-1 (Ba-L) = assay: microbe, parasite or virus in culture; assay type: cell-based; conditions: CCR5-tropic strain, PBMC, read-out: HIV-1 (Ba-L) EC50
in vitro [8] = conditions: human
in vitro [9] = conditions: human; remark: listed apart in the source
[10] = Cytotoxicity in MT-4 cells (MTS/PES); conditions: human
[11] = Human immunodeficiency virus 2, MT4, MT-4 cells, 50% reduction of virus-induced cytopathic effect, read-out: HIV-2 (ROD) EC50
[12] = Human immunodeficiency virus 1, MT4
[13] = EVA71, RD, BrCr lab strain, RD cells, 50% reduction of virus-induced CPE, read-out: EC50

Compound	EC50 (HIV-2 (ROD); [11]) [nM]	EC50 (HIV-1 (NL4.3) [3]; [12]) [nM]	EC50 [5, 13] [nM]	CC50 (in vitro [8]) [nM]	other results
O=C(CCC(CCC(=O)NC(Cc1c(-c2cc(C(=O)O)cc(C(=O)O)c2)[nH]c2ccccc12)C(=O)O)(CCC(=O)NC(Cc1c(-c2cc(C(=O)O)cc(C(=O)O)c2)[nH]c2ccccc12)C(=O)O)[N+](=O)[O-])NC(Cc1c(-c2cc(C(=O)O)cc(C(=O)O)c2)[nH]c2ccccc12)C(=O)O (stereo not shown) [AL-470, reference compound]	600 ± 800	300 ± 100	300 ± 30	–	EC50 [1]: 57 ± 0.2 nM; EC50 (HIV): 270 ± 120 nM; EC50 [2]: 81 ± 13 nM; EC50 [4]: 38 ± 3 nM; EC50 ([5]; EVA71, RD, genogroup A, BrCr, RD cells (clinical isolate panel), read-out: EC50): 353 ± 31 nM; EC50 (EV71): 350 ± 30 nM; EC50 [6]: 179 ± 11 nM
c1cc(CN2CCCNCCNCCCNCC2)ccc1CN1CCCNCCNCCCNCC1 [AMD3100]	–	–	–	–	EC50 (HIV-1 (NL4.3) [7]; Human immunodeficiency virus 1): 3.57 ng/mL; EC50 (HIV-1 (Ba-L); Human immunodeficiency virus 1, BAL): > 1000 ng/mL
O=C(CCC(CCC(=O)NC(Cc1c[nH]c2c(-c3cccc(C(=O)O)c3)cccc12)C(=O)O)(CCC(=O)NC(Cc1c[nH]c2c(-c3cccc(C(=O)O)c3)cccc12)C(=O)O)[N+](=O)[O-])NC(Cc1c[nH]c2c(-c3cccc(C(=O)O)c3)cccc12)C(=O)O (stereo not shown) [Compound 14]	> 30000	45100 ± 10200	54800 ± 34100	> 100000	CC50 (in vitro [9]): > 84000 nM
O=C(CCC(CCC(=O)NC(Cc1c[nH]c2c(-c3cc(C(=O)O)cc(C(=O)O)c3)cccc12)C(=O)O)(CCC(=O)NC(Cc1c[nH]c2c(-c3cc(C(=O)O)cc(C(=O)O)c3)cccc12)C(=O)O)[N+](=O)[O-])NC(Cc1c[nH]c2c(-c3cc(C(=O)O)cc(C(=O)O)c3)cccc12)C(=O)O (stereo not shown) [Compound 16]	1900 ± 400	400 ± 200	1200 ± 200	–	–
O=C(CCOCC(COCCC(=O)NC(Cc1c[nH]c2c(-c3cccc(C(=O)O)c3)cccc12)C(=O)O)(COCCC(=O)NC(Cc1c[nH]c2c(-c3cccc(C(=O)O)c3)cccc12)C(=O)O)COCCC(=O)NC(Cc1c[nH]c2c(-c3cccc(C(=O)O)c3)cccc12)C(=O)O)NC(Cc1c[nH]c2c(-c3cccc(C(=O)O)c3)cccc12)C(=O)O (stereo not shown) [Compound 21]	7900 ± 900	14100 ± 600	3100 ± 1100	–	–
O=C(CCOCC(COCCC(=O)NC(Cc1c[nH]c2c(-c3ccc(C(=O)O)cc3)cccc12)C(=O)O)(COCCC(=O)NC(Cc1c[nH]c2c(-c3ccc(C(=O)O)cc3)cccc12)C(=O)O)COCCC(=O)NC(Cc1c[nH]c2c(-c3ccc(C(=O)O)cc3)cccc12)C(=O)O)NC(Cc1c[nH]c2c(-c3ccc(C(=O)O)cc3)cccc12)C(=O)O (stereo not shown) [Compound 22]	400 ± 300	6500 ± 2500	1700 ± 400	> 100000	CC50 (in vitro [9]): > 100000 nM
O=C(CCOCC(COCCC(=O)NC(Cc1c[nH]c2c(-c3cc(C(=O)O)cc(C(=O)O)c3)cccc12)C(=O)O)(COCCC(=O)NC(Cc1c[nH]c2c(-c3cc(C(=O)O)cc(C(=O)O)c3)cccc12)C(=O)O)COCCC(=O)NC(Cc1c[nH]c2c(-c3cc(C(=O)O)cc(C(=O)O)c3)cccc12)C(=O)O)NC(Cc1c[nH]c2c(-c3cc(C(=O)O)cc(C(=O)O)c3)cccc12)C(=O)O (stereo not shown) [Compound 23]	20 ± 20	20 ± 10	300 ± 40	–	CC50 at 120 h (in vitro [8]): 75000 nM; CC50 (in vitro [9]): > 55000 nM
O=C(CCOCC(COCCC(=O)NC(Cc1c(-c2ccc(C(=O)O)cc2)[nH]c2c(-c3ccc(C(=O)O)cc3)cccc12)C(=O)O)(COCCC(=O)NC(Cc1c(-c2ccc(C(=O)O)cc2)[nH]c2c(-c3ccc(C(=O)O)cc3)cccc12)C(=O)O)COCCC(=O)NC(Cc1c(-c2ccc(C(=O)O)cc2)[nH]c2c(-c3ccc(C(=O)O)cc3)cccc12)C(=O)O)NC(Cc1c(-c2ccc(C(=O)O)cc2)[nH]c2c(-c3ccc(C(=O)O)cc3)cccc12)C(=O)O (stereo not shown) [Compound 32]	20 ± 20	200 ± 200	100 ± 20	> 100000	CC50 (in vitro [9]): > 100000 nM
NC(Cc1c(-c2cc(C(=O)O)cc(C(=O)O)c2)[nH]c2c(-c3cc(C(=O)O)cc(C(=O)O)c3)cc(-c3cc(C(=O)O)cc(C(=O)O)c3)cc12)C(=O)O (stereo not shown) [Compound 37, 5,5′,5″-(3-(2-Amino-2-carboxyethyl)-1H-indole-2,5,7-triyl)triisophthalic Acid]	–	> 100000	–	–	EC50 (HIV-2 (ROD); Human immunodeficiency virus 2, MT4, read-out: HIV-2 (ROD) EC50): > 100000 nM; EC50 ([5]; EVA71, RD): > 90000 nM; CC50 at 5 days [10]: > 100000 nM
O=C(CCC(CCC(=O)NC(Cc1c(-c2cccc(C(=O)O)c2)[nH]c2ccccc12)C(=O)O)(CCC(=O)NC(Cc1c(-c2cccc(C(=O)O)c2)[nH]c2ccccc12)C(=O)O)[N+](=O)[O-])NC(Cc1c(-c2cccc(C(=O)O)c2)[nH]c2ccccc12)C(=O)O (stereo not shown) [I, reference compound]	64000 ± 28000	16000 ± 5700	–	> 100000	–
O=C(CCC(CCC(=O)NC(Cc1c(-c2ccc(C(=O)O)cc2)[nH]c2ccccc12)C(=O)O)(CCC(=O)NC(Cc1c(-c2ccc(C(=O)O)cc2)[nH]c2ccccc12)C(=O)O)[N+](=O)[O-])NC(Cc1c(-c2ccc(C(=O)O)cc2)[nH]c2ccccc12)C(=O)O (stereo not shown) [II, reference compound]	> 71000	2400 ± 1300	–	71000	–
O=C(CCOCC(COCCC(=O)NC(Cc1c(-c2cccc(C(=O)O)c2)[nH]c2ccccc12)C(=O)O)(COCCC(=O)NC(Cc1c(-c2cccc(C(=O)O)c2)[nH]c2ccccc12)C(=O)O)COCCC(=O)NC(Cc1c(-c2cccc(C(=O)O)c2)[nH]c2ccccc12)C(=O)O)NC(Cc1c(-c2cccc(C(=O)O)c2)[nH]c2ccccc12)C(=O)O (stereo not shown) [III, reference compound]	800 ± 500	2000 ± 600	–	> 100000	–
O=C(CCOCC(COCCC(=O)NC(Cc1c(-c2ccc(C(=O)O)cc2)[nH]c2ccccc12)C(=O)O)(COCCC(=O)NC(Cc1c(-c2ccc(C(=O)O)cc2)[nH]c2ccccc12)C(=O)O)COCCC(=O)NC(Cc1c(-c2ccc(C(=O)O)cc2)[nH]c2ccccc12)C(=O)O)NC(Cc1c(-c2ccc(C(=O)O)cc2)[nH]c2ccccc12)C(=O)O (stereo not shown) [IV, reference compound]	700 ± 800	700 ± 500	–	> 100000	–
CN[C@@H]1[C@H](O[C@@H]2OC[C@@H](O)[C@H](O)[C@H]2O)[C@@H](O)[C@H](O[C@H]2c3cc(C)c(C(=O)N[C@H](C)C(=O)O)c(O)c3-c3c(cc4c(c3O)C(=O)c3cc(OC)cc(O)c3C4=O)[C@@H]2O)O[C@@H]1C [PRM-A, pradimicin A, reference compound]	5900 ± 3700	3300 ± 1200	–	–	CC50 at 5 days [10]: > 100000 nM
CCOC(=O)c1ccc(OCCC2CCN(c3ccc(C)nn3)CC2)cc1 [pirodavir, reference compound]	–	–	–	–	CC50 at 3 days (in vitro [9]): > 100000 nM; EC50 ([5]; EVA71, BrCr lab strain, RD cells, 50% reduction of virus-induced CPE, read-out: EC50): 300 ± 100 nM
dextran sulfate-5000 [DS-5000, reference compound]	–	–	–	–	EC50 (HIV-2 (ROD); MT-4 cells, 50% reduction of virus-induced cytopathic effect, read-out: HIV-2 (ROD) EC50): 30 ± 10 nM; EC50 (HIV-1 (NL4.3) [3]): 70 ± 20 nM
maraviroc	–	–	–	–	HIV-1 (NL4.3) EC50 (HIV-1 (NL4.3) [7]): insensitive; EC50 (HIV-1 (NL4.3) [7]): > 1000 nM; EC50 (HIV-1 (Ba-L)): 4.48 nM
